Source: patent US7820678B2, “Sodium channel blockers” (Parion Sciences, Inc., priority 2003, dated 2010)

Structure (SMILES): CS(=O)(=O)N(c1ccc(CCCCNC(=N)NC(=O)c2nc(Cl)c(N)nc2N)cc1)S(C)(=O)=O [Example 4, N-(3,5-Diamino-6-chloropyrazine-2-carbonyl)-N′-[4-(4-bis(methanesulfonyl)aminophenyl)butyl]guanidine]
- melting point: 174 to 176 °C (dec.)
